Data taken from patent publication US20250236614A1, “BICYCLIC TETRAHYDROAZEPINE DERIVATIVES” (Hoffmann-La Roche Inc., priority 2022, published 2025).
pEC50, pIC50: −log10 of the molar value.

Tests used:
[1] = target: T1, hDGKzeta(1-928)-N-His (DGKZ) (Homo sapiens, UniProt Q13574); test: In vitro DGK inhibition assay (ADP-Glo, in house), DGK zeta; assay type: biochemical; conditions: isomer A; 2 nM DGK ζ, 50 μM ATP, 125 μM DLG in liposomes, 1 hour reaction; read-out: DGKzeta ADP Glo assay IC50
T1 construct: hDGKzeta(1-928)-N-His; His (N)
T1 sequence (Q13574 whole entry): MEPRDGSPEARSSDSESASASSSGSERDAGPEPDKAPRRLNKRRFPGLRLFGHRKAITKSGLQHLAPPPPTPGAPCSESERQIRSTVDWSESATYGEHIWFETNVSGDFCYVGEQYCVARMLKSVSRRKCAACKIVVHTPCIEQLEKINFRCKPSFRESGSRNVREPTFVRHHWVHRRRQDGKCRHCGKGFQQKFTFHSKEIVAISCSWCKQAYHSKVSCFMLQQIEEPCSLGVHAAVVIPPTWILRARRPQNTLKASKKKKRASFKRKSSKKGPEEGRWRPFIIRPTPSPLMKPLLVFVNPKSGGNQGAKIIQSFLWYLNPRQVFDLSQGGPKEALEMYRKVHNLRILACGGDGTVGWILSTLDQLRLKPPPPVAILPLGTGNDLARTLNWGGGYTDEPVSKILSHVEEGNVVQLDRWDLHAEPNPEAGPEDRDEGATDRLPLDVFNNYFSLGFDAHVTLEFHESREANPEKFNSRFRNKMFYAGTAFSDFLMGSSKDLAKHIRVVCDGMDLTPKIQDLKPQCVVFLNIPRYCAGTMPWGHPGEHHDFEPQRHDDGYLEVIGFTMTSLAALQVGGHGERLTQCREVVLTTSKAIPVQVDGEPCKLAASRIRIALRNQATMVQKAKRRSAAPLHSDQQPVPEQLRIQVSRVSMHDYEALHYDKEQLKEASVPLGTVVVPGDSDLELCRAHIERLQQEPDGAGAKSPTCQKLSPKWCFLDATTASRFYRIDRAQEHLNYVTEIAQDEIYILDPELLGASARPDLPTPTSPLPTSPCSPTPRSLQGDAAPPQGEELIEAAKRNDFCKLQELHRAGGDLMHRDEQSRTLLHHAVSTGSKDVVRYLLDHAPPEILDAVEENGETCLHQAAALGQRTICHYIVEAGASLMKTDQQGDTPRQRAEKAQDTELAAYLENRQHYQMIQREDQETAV
Procedure: (§1) DGK α and ζ kinase use ATP to phosphorylate the substrate 1,2-dilauroyl-sn-glycerol (DLG, incorporated in the liposomes). ATP is converted to ADP as a result of this enzymatic reaction.
(§2) After the kinase reaction, an ATP-depletion reagent is added to terminate the kinase reaction and deplete any remaining ATP, leaving only ADP. Second, a detection reagent is added to simultaneously convert ADP to ATP and allow the newly synthesized ATP to be converted to light using a coupled luciferase/luciferin reaction.
(§3) Full length DGKA and Z were expressed in Sf21 insect cells by infecting the cells with the baculovirus stock at MOI of 2. Purification of both enzymes was performed as previously described by Takahashi et al., PeerJ, 2018 (Takahashi, D.; Sakane, F. Expression and purification of human diacylglycerolkinase alpha from baculovirus-infected insect cells for structural studies. PeerJ2018, 6, No. e5449).
(§4) A concentrated liposome solution was prepared in assay buffer without DTT and BSA: 2 mM of DLG in 21 mM of total liposome (2 mM DLG/8 mM PS/11 mM PC). The reaction mixtures contain the assay buffer with a final DLG concentration of 125 μM ATP concentrations of 25 μM (for DGKA assay) or 50 μM (for DGKZ assay). The reactions were started by addition of DGK α and ζ kinases at 4 nM and 2 nM final concentrations, respectively. After 1 hour reaction, the amount of ADP formed was detected with the ADP-Glo kinase assay (Promega) according to the manufacturer instructions. Compounds were added in 11I-points dose response, starting at 10 mM, 1:3 dilutions, with a final DMSO concentration of […]. The multidrop combi was used as a liquid handler and luminescence was read with 0.5 s by the envision reader (PE).

primary human T-cells = test: IL2 secretion measurements in CD3-stimulated T-cells; assay type: cell-based; conditions: Homo sapiens, T-cell, isomer A; for pEC50: CD3 antibody-stimulated T-cells, IL2 in supernatant after 24 hours, read-out: Tcell IL2 CD3 EC50; for Emax: CD3 condition, 24 hours, 20 μM reference compound A1 = 100%, DMSO neutral control, read-out: Emax IL2 (% activation)
Procedure: As readouts for T-cell activation, IL2 secretion after 24 hours and proliferation after 5 days was measured. Increases in IL2 secretion and proliferation upon compound treatment were assessed as the % of the maximum of reference compound A1. WO 2016/139181 discloses reference compound A1 as example 70. As a counter screen and to make sure that no unwanted TCR-independent activation was triggered, PBS conditions were run for all compounds.
Expanded primary human T-cells were thawed and cultured in RPMI 1640 (Gibco, #61870-010)+5% human serum (HS, Sigma, #H3667)+1 mM Sodium Pyruvate (Gibco, #11360-039)+50 μM 2-mercaptoethanol (Gibco, #31350-010) and lx Pen-Strep (Life Technologies, #15140122) medium at density of 2 Mio/ml for 3 hours in 5% CO2, 37° C. and 95% humidity. For coating of plates, […] or PBS++ with CD3 antibody (concentration depending on donor and determined by CD3 titrations) was added 100 μl/well to Poly-D Lysine coated 96-well plates. Plates were sealed and incubated at room temperature for 3 hours on a table-top rocking platform. After incubation, plates were washed once with PBS−− and filled with 40 μl/well culture medium only. Compounds were then added (see next section) to medium only plates. After 3 hours of culturing the T-cells, cells were filtered through a cell strainer (Miltenyi Biotech, #130-041-407), counted again and concentration was adjusted to 1.25 Mio/ml.
Cells were then seeded 80 μl/well to the 40 μl/well including dispensed compounds according to plate layout. By adding cells, compounds were further diluted 1:3, and resulting in 100k cells/120 μl/well. After 24 hours 40 μl of supernatant was collected carefully from the top while not disturbing the cells and transferred into a round bottom 96 well plate. Collected and frozen supernatant was used for detection of IL2 using the IL-2 Human ProQuantum Immunoassay Kit (Invitrogen) or using the Human IL-2 ELISA Kit (Thermo Fisher).
Compounds were added in a 5 or 6 pt dose response with the Tecan D300e Digital Dispenser, all conditions 3 times more concentrated than the end-concentration, since cells are added afterwards (80 μl cells to 40 μl prepared medium with treatment). The DR was starting at 20 μM or 10 μM final top concentration and a dilution factor of 3.333. The positive control was the reference compound A1 that was added in a dose response as well, additionally to 3 wells of only 20 μM representing the positive stimulator control. All wells were normalized with DMSO to a final concentration of 0.6% (0.2% end-concentration).
The immunoassay is done following the manufacturer's manual (Invitrogen, #A35603).
Additional information: For the immunoassay, MicroAmp™ EnduraPlate™ Optical 384-Well plates are used. Frozen supernatant is thawed and centrifuged for 5 minutes at 1000×g, both steps at 4° C. After centrifugation, required sample amount is taken from the top, and in a separate LightCycler V-bottom plate (working plate) diluted with assay dilution buffer, dilution factor depending on the PBS or CD3 condition but at least 1:3. IL-2 standard and blanks are prepared in the same V-bottom plate, standard with a range of […] (extended version). After preparation, […] of sample dilutions or standard/blanks are transferred to the optical 384-well plate (assay plate) and the 10 μl reaction protocol is being followed. For measurement, the QuantStudio 12K Flex system is used. Raw data is extracted and IL-2 concentrations are calculated with the Thermo Fisher online app (apps.thermofisher.com/apps/proquantum).
ELISA is done following the manufacturer's manual (Thermo Fisher Scientific, #88-7025-88).
Additional information: For the ELISA Nunc MaxiSorp 96 well plates are used. Frozen supernatant is thawed and centrifuged for 5 minutes at 1000×g, both steps at 4° C. After that, required sample amount is taken from the top, and in a separate V-bottom plate diluted with ELISA diluent, dilution factor depending on the PBS or CD3 condition. […]

[2] = target: T2, hDGKalpha(1-735)-N-His (DGKA) (Homo sapiens, UniProt P23743); test: In vitro DGK inhibition assay (ADP-Glo, in house), DGK alpha; assay type: biochemical; conditions: isomer A; 4 nM DGK α, 25 μM ATP, 125 μM DLG in liposomes, 1 hour reaction; read-out: DGKalpha ADP Glo assay IC50
T2 construct: hDGKalpha(1-735)-N-His; His (N)
T2 sequence (P23743 whole entry): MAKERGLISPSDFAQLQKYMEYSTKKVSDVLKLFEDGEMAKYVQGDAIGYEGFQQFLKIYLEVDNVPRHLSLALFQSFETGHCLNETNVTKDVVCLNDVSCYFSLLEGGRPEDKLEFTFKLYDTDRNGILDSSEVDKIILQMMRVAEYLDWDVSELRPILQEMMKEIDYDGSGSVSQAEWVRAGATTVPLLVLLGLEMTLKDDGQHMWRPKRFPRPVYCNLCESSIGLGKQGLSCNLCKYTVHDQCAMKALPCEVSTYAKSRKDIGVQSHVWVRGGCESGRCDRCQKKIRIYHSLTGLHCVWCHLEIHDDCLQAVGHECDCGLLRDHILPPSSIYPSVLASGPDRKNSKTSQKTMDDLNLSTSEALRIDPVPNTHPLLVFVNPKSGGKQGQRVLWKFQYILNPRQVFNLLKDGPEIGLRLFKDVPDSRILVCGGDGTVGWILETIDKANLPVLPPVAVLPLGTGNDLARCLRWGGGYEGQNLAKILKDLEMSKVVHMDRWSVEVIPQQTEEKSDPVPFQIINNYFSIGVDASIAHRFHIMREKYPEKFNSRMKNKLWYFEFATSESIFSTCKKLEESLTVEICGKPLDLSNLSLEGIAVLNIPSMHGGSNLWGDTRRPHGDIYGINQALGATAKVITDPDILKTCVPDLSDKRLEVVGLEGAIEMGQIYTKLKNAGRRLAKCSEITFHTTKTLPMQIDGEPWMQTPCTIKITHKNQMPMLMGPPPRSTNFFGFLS
Procedure: as §1, §2, §3, §4

SMILES | pIC50 [1] | pEC50 (primary human T-cells) | Emax (primary human T-cells) [%] | pIC50 [2]
CC(C)(C#N)c1nnc(-c2cc3c(cc2F)C(F)(F)C[C@@H](N)C(=O)N3Cc2ccc(-n3nnc(C(F)(F)F)n3)cc2)o1 (single isomer, unassigned) [Example 20] | 5.67 | 5.99 | 161 | 5.14
N[C@@H]1CC(F)(F)c2cc(F)c(-c3nnc(N4CCCC4)o3)cc2N(Cc2ccc(-n3cnc(C(F)(F)F)n3)cc2)C1=O (single isomer, unassigned) [Example 21] | 4.93 | 5.11 | 63 | 4.96
N[C@@H]1CC(F)(F)c2cc(F)c(-c3nnc(N4CCC(F)(F)C4)o3)cc2N(Cc2ccc(-n3cnc(C(F)(F)F)n3)cc2)C1=O (single isomer, unassigned) [Example 22] | 4.75 | < 5.56 | 31 | 4.98
CC(C)(c1nnc(-c2cc3c(cc2F)C(F)(F)C[C@@H](N)C(=O)N3Cc2ccc(-n3cnc(C(F)(F)F)n3)cc2)o1)S(C)(=O)=O (single isomer, unassigned) [Example 23] | 4.81 | < 5.56 | 42 | 4.85
CC(C)(C#N)c1nnc(-c2cc3c(cc2F)C(F)(F)C[C@@H](N)C(=O)N3Cc2ccc(-c3ccc(OC(F)(F)F)cn3)cc2)o1 (single isomer, unassigned) [Example 24] | 5.62 | 7.11 | 140 | 5.73
CC(C)(c1nnc(-c2cc3c(cc2F)C(F)(F)C[C@@H](N)C(=O)N3Cc2ccc(-c3ccc(OC(F)(F)F)cn3)cc2)o1)S(C)(=O)=O (single isomer, unassigned) [Example 26] | 5.05 | 6.52 | 97 | 6.37
CC(C)(C#N)c1nnc(-c2cc3c(cc2F)C(F)(F)C[C@@H](N)C(=O)N3Cc2ccc(-c3cc(C(F)(F)F)ccn3)cc2)o1 (single isomer, unassigned) [Example 27] | 5.74 | < 5.56 | 181 | 4.61
CC(C)(C#N)c1nnc(-c2cc3c(cc2F)C(F)(F)C[C@@H](N)C(=O)N3Cc2ccc(-c3ccc(C(F)(F)F)cc3)nc2)o1 (single isomer, unassigned) [Example 28] | 4.95 | 6.17 | 73 | 4.50
CC(C)(c1nnc(-c2cc3c(cc2F)C(F)(F)C[C@@H](N)C(=O)N3Cc2ccc(-n3cc(C(F)(F)F)cn3)cc2)o1)S(C)(=O)=O (single isomer, unassigned) [Example 29] | 4.86 | < 5.00 | 48 | 6.26
CC(C)(C#N)c1nnc(-c2cc3c(cc2F)C(F)(F)C[C@@H](N)C(=O)N3Cc2ccc(-n3ccc(C(F)(F)F)n3)cc2)o1 (single isomer, unassigned) [Example 30] | 4.99 | 5.58 | 77 | 4.58
CC(C)(c1nnc(-c2cc3c(cc2F)C(F)(F)C[C@@H](N)C(=O)N3Cc2ccc(-c3ccc(C(F)(F)F)cc3)cc2)o1)S(C)(=O)=O (single isomer, unassigned) [Example 32] | 4.47 | 6.22 | 27 | 4.29
COCCN1CC(c2nnc(-c3cc4c(cc3F)C(F)(F)C[C@@H](N)C(=O)N4Cc3ccc(-c4ccc(C(F)(F)F)cn4)cc3)o2)CC(F)(F)C1 (single isomer, unassigned) [Example 34] | 4.96 | < 5.00 | 31 | < 4.22
COC(=O)N1CC2CC(c3nnc(-c4cc5c(cc4F)C(F)(F)C[C@@H](N)C(=O)N5Cc4ccc(-c5ccc(C(F)(F)F)cn5)cc4)o3)(C2)C1 (single isomer, unassigned) [Example 35] | < 4.72 | 6.66 | 94 | < 4.72
COC(=O)N1CC2CC(c3nnc(-c4cc5c(cc4F)C(F)(F)C[C@@H](N)C(=O)N5Cc4ccc(Cl)cc4)o3)(C2)C1 (single isomer, unassigned) [Example 36] | 5.23 | 6.07 | 53 | 4.26
CC(F)(F)c1ccc(-c2ccc(CN3C(=O)[C@H](N)CC(F)(F)c4cc(F)c(-c5nnc(C(C)(C)C#N)o5)cc43)cc2)nc1 (single isomer, unassigned) [Example 37] | 5.55 | 6.34 | 136 | 4.95
COc1ccc(-c2ccc(CN3C(=O)[C@H](N)CC(F)(F)c4cc(F)c(-c5nnc(C(C)(C)C#N)o5)cc43)cc2)nc1 (single isomer, unassigned) [Example 38] | 5.24 | 5.68 | 105 | ≤ 4.22
COc1ccc(-c2ccc(CN3C(=O)[C@H](N)CC(F)(F)c4cc(F)c(-c5nnc(C(C)(C)S(C)(=O)=O)o5)cc43)cc2)nc1 (single isomer, unassigned) [Example 39] | 4.41 | < 5.00 | 35 | 4.35
CC(C)(C#N)c1nnc(-c2cc3c(cc2F)C(F)(F)C[C@@H](N)C(=O)N3Cc2ccc(-c3ccc(C(F)F)cn3)cc2)o1 (single isomer, unassigned) [Example 40] | 5.60 | < 5.00 | 27 | 4.81
CC(C)(C#N)c1nnc(-c2cc3c(cc2F)C(F)(F)C[C@@H](N)C(=O)N3Cc2ccc(-c3ccc(OC(F)F)cn3)cc2)o1 (single isomer, unassigned) [Example 41] | 5.09 | 6.05 | 131 | 4.62
